# Measurements reported in ChEMBL document CHEMBL3407479, “Structure-activity relationship for the oxadiazole class of antibiotics” (J Med Chem, 2015).
# Tested on: Staphylococcus aureus
# Assay: Antibacterial activity against methicillin-sensitive Staphylococcus aureus ATCC 29213 after 16 to 20 hrs by broth microdilution method
# Type: functional
row,MIC,SMILES
1,≥ 128 µg/mL,NCCCCc1nc(-c2ccc(Oc3ccccc3)cc2)no1
2,≥ 128 µg/mL,O=c1[nH]c(-c2ccc(Oc3ccccc3)cc2)no1
3,64 µg/mL,Cl.c1ccc(Oc2ccc(-c3noc(C4CCCN4)n3)cc2)cc1 (stereo not drawn)
4,32 µg/mL,Cl.c1ccc(Oc2ccc(-c3noc(C4CCNCC4)n3)cc2)cc1
5,2 µg/mL,O=[N+]([O-])c1c[nH]nc1-c1nc(-c2ccc(Oc3ccc(C(F)(F)F)cc3)cc2)no1
6,8 µg/mL,Oc1ccc(Cc2nc(-c3ccc(Oc4ccccc4)cc3)no2)cc1
7,2 µg/mL,Oc1c(F)cc(-c2nc(-c3ccc(Oc4ccc(C(F)(F)F)cc4)cc3)no2)cc1F
8,≥ 128 µg/mL,COc1ccc(-c2nc(-c3ccc(Oc4ccc(C(F)(F)F)cc4)cc3)no2)cc1[N+](=O)[O-]
9,≥ 128 µg/mL,FC(F)(F)c1ccc(Oc2ccc(-c3noc(-c4n[nH]c5ccccc45)n3)cc2)cc1
10,≥ 128 µg/mL,Fc1ccc(Oc2ccc(-c3noc(-c4cc[nH]c4)n3)cc2)cc1
11,1 µg/mL,Clc1c[nH]nc1-c1nc(-c2ccc(Oc3ccccc3)cc2)no1
12,≥ 128 µg/mL,O=C(Nc1c[nH]nc1-c1nc(-c2ccc(Oc3ccc(C(F)(F)F)cc3)cc2)no1)c1ccccc1
13,≥ 128 µg/mL,Oc1cc(-c2nc(-c3ccc(Oc4ccccc4)cc3)no2)ccc1I
14,2 µg/mL,c1ccc(Oc2ccc(-c3noc(-c4ccc5[nH]ccc5c4)n3)cc2)cc1
15,1 µg/mL,Ic1c[nH]nc1-c1nc(-c2ccc(Oc3ccccc3)cc2)no1
16,≥ 128 µg/mL,Nc1cc(-c2nc(-c3ccc(Oc4ccc(C(F)(F)F)cc4)cc3)no2)cnc1O
17,2 µg/mL,N#Cc1c[nH]nc1-c1nc(-c2ccc(Oc3ccc(C(F)(F)F)cc3)cc2)no1
18,≥ 128 µg/mL,Nc1c[nH]c(-c2nc(-c3ccc(Oc4ccc(F)cc4)cc3)no2)c1
19,≥ 128 µg/mL,FC(F)(F)c1ccc(Oc2ccc(-c3noc(-c4n[nH]cc4NC4CCCC4)n3)cc2)cc1
20,≥ 128 µg/mL,CCn1ccc(-c2nc(-c3ccc(Oc4ccc(F)cc4)cc3)no2)n1
21,1 µg/mL,Brc1c[nH]nc1-c1nc(-c2ccc(Oc3ccccc3)cc2)no1
22,≥ 128 µg/mL,NS(=O)(=O)c1ccc(-c2nc(-c3ccc(Oc4ccc(F)cc4)cc3)no2)cc1
23,≥ 128 µg/mL,COc1ccc(-c2nc(-c3ccc(Oc4ccccc4)cc3)no2)cc1N
24,≥ 32 µg/mL,O=[N+]([O-])c1ccc(-c2nc(-c3ccc(Oc4ccccc4)cc3)no2)cc1
25,≥ 128 µg/mL,CC(=O)N1CCC(c2nc(-c3ccc(Oc4ccc(F)cc4)cc3)no2)CC1

row,MIC,SMILES
1,≥ 128 µg/mL,[O-][n+]1ccc(-c2nc(-c3ccc(Oc4ccccc4)cc3)no2)cc1
2,≥ 128 µg/mL,Oc1cccc(-c2nc(-c3ccc(Oc4ccccc4)cc3)no2)c1
3,8 µg/mL,C=CCOc1cc(N)ccc1-c1nc(-c2ccc(Oc3ccccc3)cc2)no1
4,≥ 128 µg/mL,O=C(O)c1ccc(-c2nc(-c3ccc(Oc4ccc(F)cc4)cc3)no2)cc1
5,≥ 128 µg/mL,Nc1ccc(-c2nc(-c3ccc(Oc4ccc(F)cc4)cc3)no2)cc1
6,≥ 128 µg/mL,Oc1ccccc1-c1nc(-c2ccc(Oc3ccccc3)cc2)no1
7,4 µg/mL,Oc1ccc(-c2nc(-c3ccc(Oc4ccccc4)cc3)no2)cc1F
8,2 µg/mL,Oc1ccc(-c2nc(-c3ccc(Oc4ccc(F)cc4)cc3)no2)cc1F
9,4 µg/mL,Oc1ccc(-c2nc(-c3ccc(Oc4ccc(F)cc4)cc3)no2)cc1O
10,4 µg/mL,OCC#Cc1c[nH]nc1-c1nc(-c2ccc(Oc3ccc(C(F)(F)F)cc3)cc2)no1
11,≥ 128 µg/mL,FC(F)(F)c1ccc(Oc2ccc(-c3noc(-c4c[nH]c5ncccc45)n3)cc2)cc1
12,≥ 128 µg/mL,CC(C)CNc1c[nH]nc1-c1nc(-c2ccc(Oc3ccc(C(F)(F)F)cc3)cc2)no1
13,≥ 128 µg/mL,COc1ccc(-c2nc(-c3ccc(Oc4ccc(C(F)(F)F)cc4)cc3)no2)cc1OC
14,≥ 128 µg/mL,Nc1ccc(-c2nc(-c3ccc(Oc4ccccc4)cc3)no2)c(O)c1
15,≥ 128 µg/mL,Fc1ccc(-c2nc(-c3ccc(Oc4ccccc4)cc3)no2)cc1
16,≥ 128 µg/mL,CC(C)c1cc(-c2nc(-c3ccc(Oc4ccc(F)cc4)cc3)no2)n[nH]1
17,16 µg/mL,Nc1c[nH]nc1-c1nc(-c2ccc(Oc3ccc(F)cc3)cc2)no1
18,≥ 128 µg/mL,Cc1nc(-c2ccc(Oc3ccccc3)cc2)no1
19,4 µg/mL,Fc1ccc(Oc2ccc(-c3noc(-c4n[nH]cc4I)n3)cc2)cc1
20,≥ 128 µg/mL,c1ccc(Oc2ccc(-c3noc(C4CCOCC4)n3)cc2)cc1
21,≥ 128 µg/mL,Nc1cncc(-c2nc(-c3ccc(Oc4ccc(C(F)(F)F)cc4)cc3)no2)c1
22,≥ 128 µg/mL,Nc1cncc(-c2nc(-c3ccc(Oc4ccc(F)cc4)cc3)no2)c1
23,≥ 128 µg/mL,Nc1cc(-c2nc(-c3ccc(Oc4ccc(F)cc4)cc3)no2)ccc1O
24,≥ 128 µg/mL,FC(F)(F)c1ccc(Oc2ccc(-c3noc(-c4cc[nH]n4)n3)cc2)cc1
25,≥ 128 µg/mL,O=P(O)(O)c1ccc(-c2nc(-c3ccc(Oc4ccc(F)cc4)cc3)no2)cc1

row,MIC,SMILES
1,≥ 128 µg/mL,O=C(Nc1c[nH]nc1-c1nc(-c2ccc(Oc3ccc(C(F)(F)F)cc3)cc2)no1)c1ccccn1
2,≥ 128 µg/mL,O=[N+]([O-])c1c[nH]c(-c2nc(-c3ccc(Oc4ccc(F)cc4)cc3)no2)c1
3,1 µg/mL,Oc1ccc(-c2nc(-c3ccc(Oc4ccc(F)cc4)cc3)no2)cc1
4,≥ 128 µg/mL,Nc1ccc(-c2nc(-c3ccc(Oc4ccccc4)cc3)no2)cc1F
5,≥ 128 µg/mL,FC(F)(F)c1ccc(Oc2ccc(-c3noc(-c4ccc(Br)cc4)n3)cc2)cc1
6,16 µg/mL,FC(F)(F)c1ccc(Oc2ccc(-c3noc(-c4cn[nH]n4)n3)cc2)cc1
7,≥ 128 µg/mL,COc1ccc(-c2nc(-c3ccc(Oc4ccc(F)cc4)cc3)no2)cc1OC
8,≥ 128 µg/mL,CCCCNc1c[nH]nc1-c1nc(-c2ccc(Oc3ccc(C(F)(F)F)cc3)cc2)no1
9,≥ 128 µg/mL,Fc1ccc(Oc2ccc(-c3noc(-c4ccc(Br)cc4)n3)cc2)cc1
10,≥ 128 µg/mL,C[Si](C)(C)C#Cc1c[nH]nc1-c1nc(-c2ccc(Oc3ccc(C(F)(F)F)cc3)cc2)no1
11,≥ 128 µg/mL,Fc1ccc(Oc2ccc(-c3noc(-c4c[nH]cn4)n3)cc2)cc1
12,≥ 128 µg/mL,O=[N+]([O-])c1cc(-c2nc(-c3ccc(Oc4ccc(F)cc4)cc3)no2)ccc1O
13,≥ 128 µg/mL,Fc1ccc(Oc2ccc(-c3noc(-c4c[nH]c5ncccc45)n3)cc2)cc1
14,≥ 128 µg/mL,c1ccc(Oc2ccc(-c3noc(-c4ccncc4)n3)cc2)cc1
15,2 µg/mL,Oc1ccc(-c2nc(-c3ccc(Oc4ccc(C(F)(F)F)cc4)cc3)no2)cc1F
16,8 µg/mL,Oc1c(F)cc(-c2nc(-c3ccc(Oc4ccc(F)cc4)cc3)no2)cc1F
17,≥ 128 µg/mL,O=C1C[C@@H](c2nc(-c3ccc(Oc4ccc(C(F)(F)F)cc4)cc3)no2)CN1
18,≥ 128 µg/mL,COc1cc(-c2nc(-c3ccc(Oc4ccccc4)cc3)no2)ccc1N
19,16 µg/mL,Nc1c[nH]nc1-c1nc(-c2ccc(Oc3ccccc3)cc2)no1
20,≥ 128 µg/mL,CCOP(=O)(OCC)c1ccc(-c2nc(-c3ccc(Oc4ccc(F)cc4)cc3)no2)cc1
21,1 µg/mL,O=[N+]([O-])c1c[nH]nc1-c1nc(-c2ccc(Oc3ccc(F)cc3)cc2)no1
22,≥ 128 µg/mL,O=C1C[C@H](c2nc(-c3ccc(Oc4ccc(C(F)(F)F)cc4)cc3)no2)CN1
23,≥ 128 µg/mL,Fc1ccc(-c2nc(-c3ccc(Oc4ccc(C(F)(F)F)cc4)cc3)no2)cc1
24,≥ 128 µg/mL,NC(=O)c1ccc(-c2nc(-c3ccc(Oc4ccc(F)cc4)cc3)no2)cc1
25,≥ 128 µg/mL,NS(=O)(=O)c1ccc(-c2nc(-c3ccc(Oc4ccc(C(F)(F)F)cc4)cc3)no2)cc1

row,MIC,SMILES
1,2 µg/mL,Nc1ccc(-c2nc(-c3ccc(Oc4ccc(C(F)(F)F)cc4)cc3)no2)cc1F
2,≥ 128 µg/mL,Cl.NC(Cc1ccccc1)c1nc(-c2ccc(Oc3ccccc3)cc2)no1 (stereo not drawn)
3,8 µg/mL,Nc1c(F)cc(-c2nc(-c3ccc(Oc4ccccc4)cc3)no2)cc1F
4,≥ 128 µg/mL,O=[N+]([O-])c1ccc(-c2nc(-c3ccc(Oc4ccc(C(F)(F)F)cc4)cc3)no2)cc1
5,8 µg/mL,O=[N+]([O-])c1c[nH]c(-c2nc(-c3ccc(Oc4ccc(C(F)(F)F)cc4)cc3)no2)c1
6,2 µg/mL,O=[N+]([O-])c1c[nH]nc1-c1nc(-c2ccc(Oc3ccccc3)cc2)no1
7,0.5 µg/mL,CC(C)Nc1c[nH]nc1-c1nc(-c2ccc(Oc3ccccc3)cc2)no1
8,8 µg/mL,O=[N+]([O-])c1cc(-c2nc(-c3ccc(Oc4ccc(F)cc4)cc3)no2)cnc1O
9,4 µg/mL,Nc1c(F)cc(-c2nc(-c3ccc(Oc4ccc(C(F)(F)F)cc4)cc3)no2)cc1F
10,≥ 128 µg/mL,CCOP(=O)(OCC)c1c[nH]nc1-c1nc(-c2ccc(Oc3ccc(C(F)(F)F)cc3)cc2)no1
11,≥ 128 µg/mL,Oc1ccc(-c2nc(-c3ccc(Oc4ccc(C(F)(F)F)cc4)cc3)no2)cn1
12,≥ 128 µg/mL,CS(=O)(=O)Nc1ccc(-c2nc(-c3ccc(Oc4ccc(C(F)(F)F)cc4)cc3)no2)cc1
13,8 µg/mL,O=[N+]([O-])c1cc(-c2nc(-c3ccc(Oc4ccc(C(F)(F)F)cc4)cc3)no2)cnc1O
14,≥ 128 µg/mL,Nc1cc(-c2nc(-c3ccc(Oc4ccc(F)cc4)cc3)no2)cnc1O
15,4 µg/mL,Nc1c[nH]nc1-c1nc(-c2ccc(Oc3ccc(C(F)(F)F)cc3)cc2)no1
16,≥ 128 µg/mL,Cc1ccc(S(=O)(=O)N2CCC(c3nc(-c4ccc(Oc5ccccc5)cc4)no3)CC2)cc1
17,≥ 128 µg/mL,CC(C)(C)OC(=O)N1CCC(Nc2c[nH]nc2-c2nc(-c3ccc(Oc4ccc(C(F)(F)F)cc4)cc3)no2)CC1
18,≥ 128 µg/mL,COc1ccc(-c2nc(-c3ccc(Oc4ccccc4)cc3)no2)cc1[N+](=O)[O-]
19,≥ 128 µg/mL,Cc1ccc(S(=O)(=O)N2CCC(c3nc(-c4ccc(Oc5ccc(F)cc5)cc4)no3)CC2)cc1
20,≥ 128 µg/mL,CC(=O)Nc1ccc(-c2nc(-c3ccc(Oc4ccc(C(F)(F)F)cc4)cc3)no2)cc1
21,≥ 128 µg/mL,Fc1ccc(Oc2ccc(-c3noc(-c4cc[nH]n4)n3)cc2)cc1
22,1 µg/mL,FC(F)(F)c1ccc(Oc2ccc(-c3noc(-c4n[nH]cc4Br)n3)cc2)cc1
23,≥ 128 µg/mL,FC(F)(F)c1ccc(Oc2ccc(-c3noc(-c4nc[nH]n4)n3)cc2)cc1
24,≥ 128 µg/mL,c1ccc(Oc2ccc(-c3noc(-c4ccc5[nH]ncc5c4)n3)cc2)cc1

row,SMILES,MIC
1,Nc1ccc(-c2nc(-c3ccc(Oc4ccc(C(F)(F)F)cc4)cc3)no2)cc1,1 µg/mL
2,Fc1ccc(Oc2ccc(-c3noc(-c4ccc5[nH]ccc5c4)n3)cc2)cc1,1 µg/mL
3,Oc1ccc(-c2nc(-c3ccc(Oc4ccccc4)cc3)no2)cc1,1 µg/mL
4,Cl.Nc1ccc(-c2nc(-c3ccc(Oc4ccc(C(F)(F)F)cc4)cc3)no2)cc1,1 µg/mL
